US9809583B2 (priority 2014, dated 2017)
Read-outs that look alike come from different tables or passages of the source.

What was measured:
androgen receptor (hAR) [1] = target: T1, androgen receptor (hAR) (Homo sapiens (Human), UniProt P10275); assay: biochemical; assay type: binding
Experimental: In order to examine binding ability of the agonists of the present invention to androgen receptors, the following in-vitro experiment was performed. African green monkey kidney fibroblast-like cell line, COS-7 (ATCC, #CRL-1651) was seeded in a 48-well plate at a density of 2.5×10^4 cells/well, and cultured for 24 hours. Then, a plasmid hAR-mixed medium was added thereto. […] Thereafter, the cells were lysed and the amount of [3H]MIB bound to the intracellular androgen receptors was measured using a radiation dosimeter.

androgen receptor (hAR) [2] = target: T1, androgen receptor (hAR); assay: Test of transcriptional activity (hAR / ARE-Luc dual-luciferase assay in CHO cells); assay type: cell-based; settings: CHO cells with hAR and ARE-Luc, 24 hours, 10 nM DHT = 100%
Outline: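 Compound at 0.1˜10,000 nM applied for 24 h to CHO cells carrying transfected human AR and an ARE-driven luciferase reporter. Cells were grown 24 h before transfection; readout was dual-luciferase luminescence.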

castrated male rats = assay: Efficacy test in castrated male rat (Hershberger assay); assay type: in vivo, SD (Sprague-Dawley) rat; settings: castrated male SD rats, oral once a day for 14 days
Experimental: SD (Sprague-Dawley) male rats (7-week-old) were castrated under ketamine/xylazine anesthesia, and 5 rats were randomly assigned to one group. From the next day, the agonists were dissolved in a vehicle solution and orally administered at a dose of 5 ml per kg once a day for 14 days. As the vehicle, DMSO, Co-solvent, and DW were prepared at a ratio of 4:80:16 (v/v/v), and Co-solvent was prepared by mixing PEG400, Ethanol, and Tween 80 at a ratio of 85:10:5 (v/v/v). 24 hours after last administration of the drug, their body weight was measured and killed. Thereafter, levator ani muscle, ventral prostate, and seminal vesicles were removed and weighed (Hershberger assay). The following Table 6 represents the result of the efficacy test in castrated male rats.

[3] = 1 nM [3H]MIB, hAR-transfected COS-7 cells, 2 hours, read-out: IC50 [nM] (mean ± SE)

T1 sequence (P10275 whole entry): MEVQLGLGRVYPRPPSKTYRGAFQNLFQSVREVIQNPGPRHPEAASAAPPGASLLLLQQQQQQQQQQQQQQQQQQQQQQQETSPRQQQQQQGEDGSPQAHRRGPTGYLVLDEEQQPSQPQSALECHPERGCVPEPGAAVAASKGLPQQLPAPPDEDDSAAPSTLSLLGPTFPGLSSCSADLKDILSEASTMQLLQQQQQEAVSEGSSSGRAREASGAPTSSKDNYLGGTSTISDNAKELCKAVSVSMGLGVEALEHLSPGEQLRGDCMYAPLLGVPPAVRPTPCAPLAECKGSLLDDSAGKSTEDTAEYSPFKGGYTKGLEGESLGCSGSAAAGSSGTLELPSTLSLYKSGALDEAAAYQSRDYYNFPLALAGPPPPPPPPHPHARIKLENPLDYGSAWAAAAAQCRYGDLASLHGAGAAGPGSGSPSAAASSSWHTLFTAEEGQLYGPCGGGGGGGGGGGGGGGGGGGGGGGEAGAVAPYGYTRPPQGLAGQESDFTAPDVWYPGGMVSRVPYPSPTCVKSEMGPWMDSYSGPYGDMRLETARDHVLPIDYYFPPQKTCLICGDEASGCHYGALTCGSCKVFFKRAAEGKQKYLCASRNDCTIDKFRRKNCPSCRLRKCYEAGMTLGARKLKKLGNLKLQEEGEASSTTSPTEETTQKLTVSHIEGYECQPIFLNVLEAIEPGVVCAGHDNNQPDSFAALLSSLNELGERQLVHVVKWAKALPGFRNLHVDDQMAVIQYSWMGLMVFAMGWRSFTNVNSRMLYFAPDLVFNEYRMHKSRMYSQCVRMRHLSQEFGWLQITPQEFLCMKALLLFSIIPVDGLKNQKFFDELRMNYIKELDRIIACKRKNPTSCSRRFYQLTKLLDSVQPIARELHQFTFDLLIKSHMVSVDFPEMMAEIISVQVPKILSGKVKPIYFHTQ

Molecule | IC50 (androgen receptor (hAR) [1]; [3]) [nM] | levator ani muscle weight % relative to intact control group (castrated male rats; 0.1 mg/kg) [%] | seminal vesicles weight % relative to intact control group (castrated male rats; 0.1 mg/kg) [%] | levator ani muscle weight % relative to intact control group (castrated male rats; 0.3 mg/kg) [%] | seminal vesicles weight % relative to intact control group (castrated male rats; 0.3 mg/kg) [%] | ventral prostate weight % relative to intact control group (castrated male rats; 0.3 mg/kg) [%] | levator ani muscle weight % relative to intact control group (castrated male rats; 1 mg/kg) [%] | seminal vesicles weight % relative to intact control group (castrated male rats; 1 mg/kg) [%] | ventral prostate weight % relative to intact control group (castrated male rats; 1 mg/kg) [%] | levator ani muscle weight % relative to intact control group (castrated male rats; 3 mg/kg) [%] | seminal vesicles weight % relative to intact control group (castrated male rats; 3 mg/kg) [%] | ventral prostate weight % relative to intact control group (castrated male rats; 3 mg/kg) [%] | levator ani muscle weight % relative to intact control group (castrated male rats; 10 mg/kg) [%] | seminal vesicles weight % relative to intact control group (castrated male rats; 10 mg/kg) [%] | ventral prostate weight % relative to intact control group (castrated male rats; 10 mg/kg) [%] | levator ani muscle weight % relative to intact control group (castrated male rats; 30 mg/kg) [%] | seminal vesicles weight % relative to intact control group (castrated male rats; 30 mg/kg) [%] | ventral prostate weight % relative to intact control group (castrated male rats; 30 mg/kg) [%] | levator ani muscle weight % relative to intact control group (castrated male rats; 100 mg/kg) [%] | seminal vesicles weight % relative to intact control group (castrated male rats; 100 mg/kg) [%] | other results
N#Cc1ccc(N2C[C@@H](COc3ccc(C(=O)O)cc3)O[C@@H]2C(F)(F)F)cc1C(F)(F)F [Example 9, 4-(((2R,5S)-3-(4-cyano-3-(trifluoromethyl)phenyl)-2-(trifluoromethyl)oxazolidin-5-yl)methoxy)benzoic acid] | – | – | – | – | – | – | – | – | – | – | – | – | – | – | – | – | – | – | – | – | IC50 (androgen receptor (hAR) [1]): 367 nM
COc1ccc(OC[C@@H]2CN(c3ccc(C#N)c(C(F)(F)F)c3)[C@@H](C(F)(F)F)O2)cc1 [Example 27, 4-((2R,5S)-5-((4-methoxyphenoxy)methyl)-2-(trifluoromethyl)oxazolidin-3-yl)-2-(trifluoromethyl)benzonitrile] | 22.4 | – | – | – | – | – | – | – | – | – | – | – | – | – | – | – | – | – | – | – | –
COc1cccc(OC[C@@H]2CN(c3ccc(C#N)c(C(F)(F)F)c3)[C@@H](C(F)(F)F)O2)c1 [Example 28, 4-((2R,5S)-5-((3-methoxyphenoxy)methyl)-2-(trifluoromethyl)oxazolidin-3-yl)-2-(trifluoromethyl)benzonitrile] | 77.2 | – | – | – | – | – | – | – | – | – | – | – | – | – | – | – | – | – | – | – | –
(2R,5S)-N-(4-acetamidophenyl)-3-(3-chloro-4-nitrophenyl)-2-(trifluoromethyl)oxazolidine-5-carboxamide [Example 123] | – | 7.00 ± 0.7 | 0.2 ± 0.0 | 14.7 ± 1.5 | 0.1 ± 0.0 | 1.6 ± 0.2 | 23.0 ± 1.1 | 0.5 ± 0.1 | 0.7 ± 0.2 | 40.2 ± 4.2 | 2.8 ± 1.2 | 5.6 ± 1.9 | 58.7 ± 4.1 | 11.0 ± 2.3 | 7.9 ± 2.2 | 78.9 ± 4.0 | 30.5 ± 5.7 | 23.0 ± 2.9 | 88.5 ± 4.7 | 58.7 ± 10.8 | EC50 (androgen receptor (hAR) [2]; read-out: EC50 [nM] (mean ± SE)): 7.34 nM; levator ani muscle weight % relative to intact control group (castrated male rats; 0.03 mg/kg): 3.5 ± 0.5%; seminal vesicles weight % relative to intact control group (castrated male rats; 0.03 mg/kg): 0.3 ± 0.0%; ventral prostate weight % relative to intact control group (castrated male rats; 0.03 mg/kg): 0.5 ± 0.1%; ventral prostate weight % relative to intact control group (castrated male rats; 100 mg/kg): 39.0 ± 9.8%
COC(=O)Nc1ccc(OC[C@@H]2CN(c3ccc(C#N)c(C(F)(F)F)c3)[C@@H](C(F)(F)F)O2)cc1 [Example 36, methyl(4-(((2R,5S)-3-(4-cyano-3-(trifluoromethyl)phenyl)-2-(trifluoromethyl)oxazolidin-5-yl)methoxy)phenyl)carbamate] | – | 18.6 ± 2.2 | 2.4 ± 0.6 | 18.8 ± 2.7 | −0.2 ± 0.0 | 0.6 ± 0.1 | 53.9 ± 6.5 | 4.7 ± 1.0 | 8.0 ± 1.6 | 47.0 ± 2.6 | 3.0 ± 0.7 | 4.7 ± 1.9 | 55.2 ± 10.3 | 4.7 ± 0.7 | 5.8 ± 0.8 | 58.2 ± 5.8 | 10.4 ± 3.1 | 10.8 ± 3.1 | 65.3 ± 7.9 | 16.1 ± 4.0 | EC50 (androgen receptor (hAR) [2]; EC50 [nM] (mean ± SE)): 8.1 ± 1.9 nM; ventral prostate weight % relative to intact control group (castrated male rats; 0.1 mg/kg): 1.0 ± 0.1%; ventral prostate weight % relative to intact control group (castrated male rats; 100 mg/kg): 12.6 ± 3.1%
